Measured values reported in US6864286B2, “Inhibitors of the EGF-receptor tyrosine kinase and methods for their use” (Parker Hughes Institute, priority 1998, dated 2005).

What was measured:
[1] = biological target: T1, JAK3 (Homo sapiens, UniProt P52333); experiment: Cell-free JAK3 immune complex kinase assay; format: biochemical; details: for effect on enzymatic activity of JAK3: at concentrations as high as 350 μM
T1 construct: made in house; host or cells: Sf21 insect cells (baculovirus)
T1 sequence (P52333 1-1124): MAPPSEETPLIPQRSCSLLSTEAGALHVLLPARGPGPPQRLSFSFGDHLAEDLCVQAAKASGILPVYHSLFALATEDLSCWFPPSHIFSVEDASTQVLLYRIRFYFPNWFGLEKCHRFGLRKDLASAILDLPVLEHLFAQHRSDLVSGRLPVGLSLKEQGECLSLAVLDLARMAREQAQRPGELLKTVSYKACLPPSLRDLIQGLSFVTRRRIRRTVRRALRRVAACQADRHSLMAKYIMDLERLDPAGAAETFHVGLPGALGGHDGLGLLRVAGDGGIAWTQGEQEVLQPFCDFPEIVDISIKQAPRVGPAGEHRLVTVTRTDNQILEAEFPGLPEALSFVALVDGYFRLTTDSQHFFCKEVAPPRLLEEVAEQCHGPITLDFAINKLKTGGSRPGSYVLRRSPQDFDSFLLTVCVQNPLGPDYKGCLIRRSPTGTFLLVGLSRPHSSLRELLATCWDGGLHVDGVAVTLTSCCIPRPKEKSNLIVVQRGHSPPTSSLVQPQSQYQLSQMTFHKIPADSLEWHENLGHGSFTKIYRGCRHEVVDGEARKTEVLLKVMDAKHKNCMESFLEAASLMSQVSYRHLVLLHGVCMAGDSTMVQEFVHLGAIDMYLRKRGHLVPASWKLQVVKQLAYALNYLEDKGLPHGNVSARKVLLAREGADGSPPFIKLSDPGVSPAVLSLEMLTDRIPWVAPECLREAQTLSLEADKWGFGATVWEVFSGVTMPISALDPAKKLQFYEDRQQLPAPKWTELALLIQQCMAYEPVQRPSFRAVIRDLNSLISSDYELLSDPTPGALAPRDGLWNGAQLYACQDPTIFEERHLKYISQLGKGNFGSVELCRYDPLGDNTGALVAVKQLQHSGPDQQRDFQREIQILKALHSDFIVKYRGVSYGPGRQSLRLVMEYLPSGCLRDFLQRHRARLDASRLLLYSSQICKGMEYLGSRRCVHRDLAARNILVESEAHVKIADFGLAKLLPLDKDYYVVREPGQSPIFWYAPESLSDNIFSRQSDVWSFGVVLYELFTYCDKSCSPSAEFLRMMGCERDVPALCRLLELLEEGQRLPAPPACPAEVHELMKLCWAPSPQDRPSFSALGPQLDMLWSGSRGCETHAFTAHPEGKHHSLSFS
Method: Immunoprecipitations, immune-complex protein kinase assays, and immunoblotting using the ECL chemiluminescence detection system (Amersham Life Sciences) were conducted as described previously (Vassilev, A., et al. J. Biol. Chem. 1998, in press; Goodman, P. A., et al. J. Biol. Chem. 1998, 273, 17742; Mahajan, S., et al. Mol. Cell. Biol. 1995, 15, 5304; Uckun, F. M., et al. Science 1996, 22, 1096).

[2] = biological target: T2, EGFR tyrosine kinase (Homo sapiens, UniProt P00533); experiment: Cell-free EGFR immune complex kinase assay; format: biochemical; details: EGFR immunoprecipitated from MDA-MB-231 lysates, 1 hour incubation, read-out: EGFR Inhibition IC50
T2 construct: anti-EGFR immunoprecipitates from lysates of MDA-MB-231 human breast cancer cells; endogenous in cells; host or cells: MDA-MB-231 (ATCC HTB-26)
T2 sequence (P00533 25-1210): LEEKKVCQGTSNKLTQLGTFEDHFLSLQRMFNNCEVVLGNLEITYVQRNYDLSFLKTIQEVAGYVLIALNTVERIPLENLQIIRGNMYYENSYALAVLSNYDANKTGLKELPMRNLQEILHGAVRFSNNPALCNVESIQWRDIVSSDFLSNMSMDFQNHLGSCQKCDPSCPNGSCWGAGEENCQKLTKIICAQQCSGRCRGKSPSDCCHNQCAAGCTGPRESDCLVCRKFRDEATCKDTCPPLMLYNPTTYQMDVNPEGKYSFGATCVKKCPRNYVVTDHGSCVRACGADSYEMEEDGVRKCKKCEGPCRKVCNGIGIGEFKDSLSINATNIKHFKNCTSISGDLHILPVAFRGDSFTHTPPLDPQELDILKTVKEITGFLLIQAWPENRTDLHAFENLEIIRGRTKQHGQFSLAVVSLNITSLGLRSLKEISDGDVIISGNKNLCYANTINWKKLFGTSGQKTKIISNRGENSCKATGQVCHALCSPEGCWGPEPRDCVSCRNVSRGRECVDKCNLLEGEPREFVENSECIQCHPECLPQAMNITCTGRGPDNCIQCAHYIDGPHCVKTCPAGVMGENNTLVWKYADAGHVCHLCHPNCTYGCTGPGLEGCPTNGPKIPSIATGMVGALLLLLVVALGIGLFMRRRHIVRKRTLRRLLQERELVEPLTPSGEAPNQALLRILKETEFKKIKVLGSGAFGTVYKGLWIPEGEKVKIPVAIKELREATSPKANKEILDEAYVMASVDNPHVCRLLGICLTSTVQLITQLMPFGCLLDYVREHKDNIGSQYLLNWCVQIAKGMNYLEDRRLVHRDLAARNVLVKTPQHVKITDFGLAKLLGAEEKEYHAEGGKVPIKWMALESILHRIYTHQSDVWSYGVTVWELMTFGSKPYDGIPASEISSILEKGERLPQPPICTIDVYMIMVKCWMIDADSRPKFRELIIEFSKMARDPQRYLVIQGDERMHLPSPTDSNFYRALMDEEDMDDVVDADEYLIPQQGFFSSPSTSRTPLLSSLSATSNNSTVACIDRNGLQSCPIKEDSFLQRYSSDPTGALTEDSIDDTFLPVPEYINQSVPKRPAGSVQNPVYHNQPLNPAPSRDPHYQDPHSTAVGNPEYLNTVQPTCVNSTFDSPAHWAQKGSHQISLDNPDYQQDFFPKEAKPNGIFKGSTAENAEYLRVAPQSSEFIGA
Method: For EGFR immune complex kinase assays, 24-hours after treatment with leflunomide analogs, MDA-MB-231 breast cancer cells were stimulated with 20 ng/mL EGF for 5 minutes, lysed in 1% Nonidet-P-40 buffer, and cell lysates were immunoprecipitated with an anti-EGFR antibody reactive with the sequence Ala^351-Asp^364 of the human EGFR (Upstate Biotechnology Inc. [UBI] Catalog # 05-104) (Uckun, F. M., et al. Clin. Can. Res. 1998, 4, 901). EGFR immune complexes were examined for tyrosine phosphorylation by Western blot analysis, as described by Uckun, F. M., et al. Clin. Can. Res. 1998, 4, 901. All anti-phosphotyrosine Western blots were subjected to densitometric scanning using the automated AMBIS system (Automated Microbiology System, Inc., San Diego, Calif.) and for each time point a % inhibition value was determined by comparing the density ratios of the tyrosine phosphorylated EGFR protein bands to those of the baseline sample and using the formula: % Inhibition=100−100×[Density of tyrosine phosphorylated EGFR band]test sample/[Density of tyrosine phosphorylated EGFR band]baseline control sample. The IC50 values were determined using an Inplot program (Graphpad Software, Inc., San Diego, Calif.).
In other experiments, MDA-MB-231 cells were stimulated with 10 ng/ml EGF prior to immunoprecipitation of the EGFR. EGFR immune complexes were incubated for 1 hour at room temperature with various LFM analogs and tyrosine kinase assays were performed in the presence of [γ-^32P]-ATP, as previously described (Uckun, F. M., et al. Clin. Can. Res. 1998, 4, 901; Narla, R. K., et al. Clin. Can. Res 1998, 1405; Uckun, F. M., et al. Science 1996, 22, 1096; Uckun, F. M., et al. Science 1995, 267, 886). The kinase assay gels were analyzed both by autoradiography and using the BioRad Storage Phosphor Imager System (BioRad, Hercules, Calif.) for quantitative scanning.

SMILES	effect on enzymatic activity of JAK3 [1]	IC50 [2]	IC50 ([1]; JAK3, cell-free, read-out: Inhibition IC50)
CC(O)=C(C#N)C(=O)Nc1ccc(C(F)(F)F)cc1 [LFM, α-Cyano-β-hydroxy-β-methyl-N-[4-(trifluoromethyl)phenyl]-propenamide, reference compound]	did not affect the enzymatic activity	5.4 µM	–
C/C(O)=C(\C#N)C(=O)Nc1ccc(OC(F)(F)F)cc1 [LFM-A12, α-Cyano-β-hydroxy-β-methyl-N-[4-(trifluoromethoxy)phenyl]-propenamide]	did not affect the enzymatic activity	1.7 µM	> 350 µM
